Source: US20190369111A1, “MOLECULAR KINETICS EVALUATION METHOD AND SCREENING METHOD” (Tokyo University of Science Foundation, priority 2016, published 2019)

Molecular target: T1, MDM2 protein (Mus musculus, UniProt P23804)
T1 construct: administered intraperitoneally to C57BL/6J wild-type mice; from tissue; host or cells: C57BL/6J wild-type mice: liver, kidneys, spleen, heart
Assay: Degradation of MDM2 protein in each tissue of mouse after administration, Western blot analysis
Type: in vivo
Conditions: 48 hours after administration
Procedure: TIBC-CANDDY_MLN was dissolved in DMSO immediately before administration, and then dissolved in corn oil (Code No. 25606-55, Nacalai Tesque) so that the concentration of DMSO was 10 vol %, and then a dose of 50 mg/kg body weight or 100 mg/kg body weight was administered intraperitoneally to C57BL/6J wild-type mice (7 to 8 weeks old, male) (CLEA Japan, Inc.) (n=3). As a control, an injection carrier (corn oil containing 10 vol % DMSO) was used. The mice were kept under an environment of ad libitum access to food and water. The mice were dissected under deep anesthesia by Somnopentyl (Kyoritsu Seiyaku Corporation) 48 hours after administration. Abdominal section was performed, and then the liver, kidneys, spleen, and heart were sequentially extracted and flash frozen in liquid nitrogen. Each tissue frozen in liquid nitrogen was stored in a deep freezer at −80° C.
The frozen tissues (spleen: 0.02 g, other tissues: 0.04 g) were each frozen and triturated, and then 1×TKM tissue lysis buffer (50 mM triethanolamine (pH 7.8), 50 mM KCl, 5 mM MgCl2, 0.25 M sucrose, 1 mM PMSF, protein inhibitors cocktail-EDTA free (Code No. 03969-21, Nacalai Tesque), 1 mM DTT, and 5 μL/mL recombinant RNase inhibitor (40 U/μL, Cat No. 2313A, Lot No. K8402DA, TAKARA Bio)) were added in an amount of 490 μL for the spleen and 980 μL for the others, and dissolved by rotation for 15 minutes (1 rpm, 25° C.). Then, the resultant product was subjected to centrifugation (at 3000 rpm×15 minutes, 4° C.), and the supernatants (each tissue extract) was collected. The concentration of proteins in each tissue extract was quantified with a spectrophotometer using each tissue extract that had been diluted 20 times using DEPC-treated water.
Each tissue extract collected was subjected to Western blot analysis. An SDS-PAGE gel was prepared using TGX™ FastCast™ Acrylamide Kit, 12% (Bio-Rad). Electrophoresis samples were prepared in a 6×SDS-PAGE sample buffer (62.5 mM Tris-HCl pH 6.8, 2% SDS, 5% 2-mercaptoethanol, 10% glycerol, 0.25% BPB), and placed on a heat block at 95° C. for 5 minutes. The electrophoresis samples prepared were applied at 50 μg/well for detecting GAPDH, and at 100 μg/well for other detection. […]
After electrophoresis, proteins were transferred to a PVDF membrane (Immobion™-P, Millipore) under conditions of 100 V and 1.5 hours using a tank-type blotting device and a transfer buffer (25 mM Tris-HCl, 195 mM glycine, 0.01% SDS, 15% methanol). […] Subsequently, the membrane was treated with a chemiluminescence reagent Immobilon™ Western (Millipore), and then chemiluminescence was detected using a lumino image analyzer LAS-3000 (FUJIFILM Corporation). Detected bands were quantified with an image processing software ImageJ (NIH).

T1 sequence (P23804 whole entry): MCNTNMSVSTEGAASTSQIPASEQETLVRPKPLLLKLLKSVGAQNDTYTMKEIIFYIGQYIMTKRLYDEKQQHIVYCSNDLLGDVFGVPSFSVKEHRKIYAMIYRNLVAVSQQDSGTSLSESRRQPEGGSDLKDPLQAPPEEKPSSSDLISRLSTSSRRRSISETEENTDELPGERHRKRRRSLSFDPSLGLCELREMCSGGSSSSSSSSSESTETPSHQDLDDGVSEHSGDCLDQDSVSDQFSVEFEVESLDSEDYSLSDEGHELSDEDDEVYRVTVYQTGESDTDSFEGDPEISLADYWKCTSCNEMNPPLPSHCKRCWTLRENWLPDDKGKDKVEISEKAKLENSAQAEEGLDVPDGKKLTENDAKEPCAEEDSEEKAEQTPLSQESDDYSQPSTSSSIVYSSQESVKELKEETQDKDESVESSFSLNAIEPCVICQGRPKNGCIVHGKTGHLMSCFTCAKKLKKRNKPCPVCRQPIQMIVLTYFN

With `CC(C)C[C@H](NC(=O)CNC(=O)c1cc(Cl)ccc1Cl)C(=O)NCCCCCCC(=O)Nc1ccc(C(=O)/C=C/c2ccc(I)cc2)cc1` [TIBC-CANDDY_MLN] the “amount of MDM2 protein in heart” value (intraperitoneal 50 or 100 mg/kg body weight, heart) was “reduced in a concentration dependent manner”, the “amount of MDM2 protein in kidneys” value (intraperitoneal 50 or 100 mg/kg body weight, kidneys) was “reduction of the target was not found” and the “amount of MDM2 protein in spleen” value (intraperitoneal 50 or 100 mg/kg body weight, spleen) was “reduced in a concentration dependent manner”. The “amount of MDM2 protein in liver” value (intraperitoneal, only at a dose of 100 mg/kg body weight, liver) was “reduced slightly”.
